Measured values from patent publication US8481495B2 (TetraLogic Pharmaceuticals Corporation, priority 2009, dated 2013).

Key:
[1] = target: T1, XIAP BIR-3 (Homo sapiens, UniProt P98170); experiment: Fluorescence polarization binding to XIAP BIR-3 with labeled peptide AbuRPF-K(5-Fam)-NH2; details: XIAP BIR-3, 40 nM BIR3, 5 nM labeled peptide, 15 min RT, pH 7.5; read-out: XIAP, nM (binding affinity KD, as range)
T1 construct: 40 nM of the respective IAP BIR3
Protocol: (§1) The binding affinities of the compounds are reported as a KD value (μM). Briefly, various concentrations of test peptides were mixed with 5 nM of the fluorescently labeled peptide (i.e., a mutated N-terminal Smac peptide-AbuRPF-K(5-Fam)-NH2) and 40 nM of the respective IAP BIR3 for 15 min at RT in […] of 0.1M Potassium Phosphate buffer, pH 7.5 containing […] bovine g-globulin. Following incubation, the polarization values (mP) were measured on a Victor2V™ (available from PerkinElmer® Life Sciences) using a 485 nm excitation filter and a 520 nm emission filter. The reported binding affinities (KD values) are supplied as ranges (A=<0.1 μM, B=0.1 μM to 1 μM, C=>1 μM to 10 μM, D=>10 μM).

[2] = target: T2, cIAP-1 BIR-3 (Homo sapiens, UniProt Q13490); experiment: Fluorescence polarization binding to cIAP-1 BIR-3 with labeled peptide AbuRPF-K(5-Fam)-NH2; details: cIAP-1 BIR-3, 40 nM BIR3, 5 nM labeled peptide, 15 min RT, pH 7.5; read-out: cIAP1, nM (binding affinity KD, as range)
T2 construct: 40 nM of the respective IAP BIR3
T2 sequence (Q13490 253-363 limits assumed): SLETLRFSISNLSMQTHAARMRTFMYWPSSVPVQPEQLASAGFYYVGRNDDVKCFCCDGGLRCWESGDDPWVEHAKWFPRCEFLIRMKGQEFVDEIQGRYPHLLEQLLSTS
Protocol: as §1

[3] = tested on: SK-OV-3 cells; experiment: MTT cell growth inhibition assay in ovarian cancer cell line SK-OV-3; type: cell-based; details: Homo sapiens, 72 hrs incubation, read-out: SKOV3, nM (CC50, concentration giving 50% cell survival, as range)
Protocol: Compounds of the invention also were tested for their ability to inhibit the growth of an ovarian cancer cell line, SK-OV-3. A known assay previously used for measuring cell growth (as described in Hansen, M. B., Nielsen, S. E., and Berg, K. (1989) J. Immunol. Methods 119, 203-210 and incorporated herein by reference in its entirety) was used. Briefly, SK-OV-3 cells are seeded in 96-well plates in McCoy's medium containing 10% fetal bovine serum albumin (5,000 per well) and incubated overnight at 37° C. The next day, test compounds are added at various concentrations (0.003-10 μM) and the plates are incubated at 37° C. for an additional 72 hrs. This incubation time was considered to be optimal for measuring inhibitory effects of the different compounds tested. 50 microliters of 5 mg/mL MTT reagent is added to each well and the plates are incubated at 37° C. for another three (3) hours. At the end of the three (3) hour incubation period, 50 microliters of DMSO is added to each well to dissolve cells and the optical density (OD) of the wells is measured with a microplate reader (Victor^2 1420™, Wallac, Finland) at 535 nm. Cell survival (CS) was calculated using the following equation: CS=(OD treated well/mean OD control wells)×100%.
The CC50 (reported in the following tables), is defined as the drug concentration that results in 50% cell survival (CS), and is derived by calculating the point where the dose-response curve crosses the 50% CS point using GraphPad Prism® graphing software. The reported CC50 values are supplied as ranges (A=<0.1 μM, B=0.1 μM to 1 μM, C=>1 μM to 10 μM, D=>10 μM).

T1 sequence (P98170 241-356 limits assumed): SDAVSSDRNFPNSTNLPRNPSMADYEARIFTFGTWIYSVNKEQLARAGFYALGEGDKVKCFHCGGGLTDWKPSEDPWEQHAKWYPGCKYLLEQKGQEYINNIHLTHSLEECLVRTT

Row | SMILES | Kd [1] | Kd [2] | CC50 [3]
1 | CN[C@@H](C)C(=O)N[C@H](C(=O)N1CC[C@@H]2[C@H]1[C@@H](C(=O)N[C@@H]1CCCc3ccccc31)CN2C(C)=O)C(C)(C)C [Example 34, 1-Acetyl-4-[3,3-dimethyl-2-(2-methylamino-propionylamino)-butyryl]-octahydro-pyrrolo[3,2-b]pyrrole-3-carboxylic acid (1,2,3,4-tetrahydro-naphthalen-1-yl)-amide] | < 100 nM | < 100 nM | < 100 nM
2 | CN[C@@H](C)C(=O)N[C@H](C(=O)N1CC[C@@H]2[C@H]1[C@@H](C(=O)NCc1ccc(F)cc1)CN2C(C)=O)C(C)(C)C [Example 35, 1-Acetyl-4-[3,3-dimethyl-2-(2-methylamino-propionylamino)-butyryl]-octahydro-pyrrolo[3,2-b]pyrrole-3-carboxylic acid 4-fluoro-benzylamide] | < 100 nM | < 100 nM | < 100 nM
3 | CN[C@@H](C)C(=O)N[C@H](C(=O)N1CC[C@@H]2[C@H]1[C@@H](C(=O)N[C@@H]1CCCc3ccccc31)CN2C(C)=O)C1CCCCC1 [Example 36, 1-Acetyl-4-[2-cyclohexyl-2-(2-methylamino-propionylamino)-acetyl]-octahydro-pyrrolo[3,2-b]pyrrole-3-carboxylic acid (1,2,3,4-tetrahydro-naphthalen-1-yl)-amide] | < 100 nM | < 100 nM | < 100 nM
4 | CN[C@@H](C)C(=O)N[C@H](C(=O)N1CC[C@@H]2[C@H]1[C@@H](C(=O)Nc1cccc3ccccc13)CN2C(C)=O)C(C)(C)C [Example 37, 1-Acetyl-4-[3,3-dimethyl-2-(2-methylamino-propionylamino)-butyryl]-octahydro-pyrrolo[3,2-b]pyrrole-3-carboxylic acid naphthalen-1-ylamide] | < 100 nM | < 100 nM | < 100 nM
5 | CN[C@@H](C)C(=O)N[C@H](C(=O)N1CC[C@@H]2[C@H]1[C@@H](C(=O)NCc1ccccc1)CN2C(C)=O)C(C)(C)C [Example 38, 1-Acetyl-4-[3,3-dimethyl-2-(2-methylamino-propionylamino)-butyryl]-octahydro-pyrrolo[3,2-b]pyrrole-3-carboxylic acid benzylamide] | < 100 nM | < 100 nM | < 100 nM
6 | CN[C@@H](C)C(=O)N[C@H](C(=O)N1CC[C@@H]2[C@H]1[C@@H](C(=O)N[C@@H]1CCCc3ccccc31)CN2C(=O)OC)C1CCCCC1 [Example 39, 4-[2-Cyclohexyl-2-(2-methylamino-propionylamino)-acetyl]-3-(1,2,3,4-tetrahydro-naphthalen-1-ylcarbamoyl)-hexahydro-pyrrolo[3,2-b]pyrrole-1-carboxylic acid methyl ester] | < 100 nM | < 100 nM | < 100 nM
7 | CNC(=O)N1C[C@H](C(=O)N[C@@H]2CCCc3ccccc32)[C@@H]2[C@H]1CCN2C(=O)[C@@H](NC(=O)[C@H](C)NC)C(C)(C)C [Example 40, 4-[3,3-Dimethyl-2-(2-methylamino-propionylamino)-butyryl]-hexahydro-pyrrolo[3,2-b]pyrrole-1,3-dicarboxylic acid 1-methylamide 3-[(1,2,3,4-tetrahydro-naphthalen-1-yl)-amide]] | < 100 nM | < 100 nM | < 100 nM
8 | CNC(=O)N1C[C@H](C(=O)NCc2ccc(F)cc2)[C@@H]2[C@H]1CCN2C(=O)[C@@H](NC(=O)[C@H](C)NC)C(C)(C)C [Example 41, 4-[3,3-Dimethyl-2-(2-methylamino-propionylamino)-butyryl]-hexahydro-pyrrolo[3,2-b]pyrrole-1,3-dicarboxylic acid 3-(4-fluoro-benzylamide) 1-methylamide] | < 100 nM | < 100 nM | < 100 nM
9 | CNC(=O)N1C[C@H](C(=O)Nc2cccc3ccccc23)[C@@H]2[C@H]1CCN2C(=O)[C@@H](NC(=O)[C@H](C)NC)C(C)(C)C [Example 42, 4-[3,3-Dimethyl-2-(2-methylamino-propionylamino)-butyryl]-hexahydro-pyrrolo[3,2-b]pyrrole-1,3-dicarboxylic acid 1-methylamide 3-naphthalen-1-ylamide] | < 100 nM | < 100 nM | < 100 nM
10 | CN[C@@H](C)C(=O)N[C@H](C(=O)N1CC[C@@H]2[C@H]1[C@@H](C(=O)N[C@@H]1CCCc3ccccc31)CN2c1ncccn1)C1CCCCC1 [Example 43, 4-[2-Cyclohexyl-2-(2-methylamino-propionylamino)-acetyl]-1-pyrimidin-2-yl-octahydro-pyrrolo[3,2-b]pyrrole-3-carboxylic acid (1,2,3,4-tetrahydro-naphthalen-1-yl)-amide] | 100 to 1000 nM | < 100 nM | < 100 nM
11 | CN[C@@H](C)C(=O)N[C@H](C(=O)N1CC[C@@H]2[C@H]1[C@@H](C(=O)Nc1cccc3cnccc13)CN2S(C)(=O)=O)C(C)(C)C [Example 44, 4-[3,3-Dimethyl-2-(2-methylamino-propionylamino)-butyryl]-1-methanesulfonyl-octahydro-pyrrolo[3,2-b]pyrrole-3-carboxylic acid isoquinolin-5-ylamide] | 100 to 1000 nM | < 100 nM | < 100 nM

More lines, main results first:

Row | Kd [1] | Kd [2] | SMILES | CC50 [3]
12 | 100 to 1000 nM | < 100 nM | CN[C@@H](C)C(=O)N[C@H](C(=O)N1CC[C@@H]2[C@H]1[C@@H](C(=O)Nc1cccc3ccncc13)CN2S(C)(=O)=O)C(C)(C)C [Example 45, 4-[3,3-Dimethyl-2-(2-methylamino-propionylamino)-butyryl]-1-methanesulfonyl-octahydro-pyrrolo[3,2-b]pyrrole-3-carboxylic acid isoquinolin-8-ylamide] | 100 to 1000 nM
13 | 100 to 1000 nM | < 100 nM | CN[C@@H](C)C(=O)N[C@H](C(=O)N1CC[C@@H]2[C@H]1[C@@H](C(=O)Nc1cccc3cccnc13)CN2S(C)(=O)=O)C(C)(C)C [Example 46, 4-[3,3-Dimethyl-2-(2-methylamino-propionylamino)-butyryl]-1-methanesulfonyl-octahydro-pyrrolo[3,2-b]pyrrole-3-carboxylic acid quinolin-8-ylamide] | < 100 nM
14 | < 100 nM | < 100 nM | CN[C@@H](C)C(=O)N[C@H](C(=O)N1CC[C@@H]2[C@H]1[C@@H](C(=O)Nc1cccc3ncccc13)CN2S(C)(=O)=O)C(C)(C)C [Example 47, 4-[3,3-Dimethyl-2-(2-methylamino-propionylamino)-butyryl]-1-methanesulfonyl-octahydro-pyrrolo[3,2-b]pyrrole-3-carboxylic acid quinolin-5-ylamide] | < 100 nM
15 | < 100 nM | < 100 nM | CN[C@@H](C)C(=O)N[C@H](C(=O)N1CC[C@@H]2[C@H]1[C@@H](C(=O)Nc1cc(C)nc3ccccc13)CN2S(C)(=O)=O)C(C)(C)C [Example 48, 4-[3,3-Dimethyl-2-(2-methylamino-propionylamino)-butyryl]-1-methanesulfonyl-octahydro-pyrrolo[3,2-b]pyrrole-3-carboxylic acid (2-methyl-quinolin-4-yl)-amide] | < 100 nM
16 | < 100 nM | < 100 nM | CN[C@@H](C)C(=O)N[C@H](C(=O)N1CC[C@@H]2[C@H]1[C@@H](C(=O)Nc1nccc3ccccc13)CN2S(C)(=O)=O)C(C)(C)C [Example 49, 4-[3,3-Dimethyl-2-(2-methylamino-propionylamino)-butyryl]-1-methanesulfonyl-octahydro-pyrrolo[3,2-b]pyrrole-3-carboxylic acid isoquinolin-1-ylamide] | < 100 nM
17 | 100 to 1000 nM | < 100 nM | CN[C@@H](C)C(=O)N[C@H](C(=O)N1CC[C@@H]2[C@H]1[C@@H](C(=O)Nc1ccc3ncccc3c1)CN2S(C)(=O)=O)C(C)(C)C [Example 50, 4-[3,3-Dimethyl-2-(2-methylamino-propionylamino)-butyryl]-1-methanesulfonyl-octahydro-pyrrolo[3,2-b]pyrrole-3-carboxylic acid quinolin-6-ylamide] | < 100 nM
